# Laboratory results reported in patent publication US8877769B2, “Heteroaryl-substituted urea modulators of fatty acid amide hydrolase” (Janssen Pharmaceutica NV, priority 2008, dated 2014).
# Columns and labels:
# FAAH = molecular target: T1, FAAH (Homo sapiens, UniProt O00519); experiment: Assay Method 1: FAAH assay, 3H-anandamide hydrolysis in cell homogenate
# T1 sequence (O00519 1-579): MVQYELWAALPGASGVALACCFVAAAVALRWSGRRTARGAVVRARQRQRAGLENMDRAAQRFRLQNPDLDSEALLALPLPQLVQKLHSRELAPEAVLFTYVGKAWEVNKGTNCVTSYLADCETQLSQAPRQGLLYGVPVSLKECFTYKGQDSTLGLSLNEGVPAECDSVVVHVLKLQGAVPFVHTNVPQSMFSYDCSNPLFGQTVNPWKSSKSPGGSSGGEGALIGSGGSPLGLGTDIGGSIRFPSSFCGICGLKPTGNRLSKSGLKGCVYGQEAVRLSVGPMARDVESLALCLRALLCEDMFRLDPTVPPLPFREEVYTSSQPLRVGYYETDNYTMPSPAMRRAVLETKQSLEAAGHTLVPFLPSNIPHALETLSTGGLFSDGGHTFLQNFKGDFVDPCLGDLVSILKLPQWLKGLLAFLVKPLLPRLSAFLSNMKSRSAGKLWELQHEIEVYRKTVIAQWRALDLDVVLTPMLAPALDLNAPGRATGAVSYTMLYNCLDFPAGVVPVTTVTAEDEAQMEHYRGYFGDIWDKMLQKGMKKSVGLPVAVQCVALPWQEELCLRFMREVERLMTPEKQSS
# Description: The assay mixture consisted of 50 μL of the cell homogenate, 10 μL of the test compound, and 40 μL of anandamide [1-^3H-ethanolamine] (^3H-AEA, Perkin-Elmer, 10.3 Ci/mmol), which was added last, for a final tracer concentration of 80 nM. The reaction mixture was incubated at rt for 1 h. During the incubation, 96-well Multiscreen filter plates (catalog number MAFCNOB50; Millipore, Bedford, Mass., USA) were loaded with 25 μL of activated charcoal (Multiscreen column loader, catalog number MACL09625, Millipore) and washed once with 100 μL of MeOH. […] After the 1 h incubation, 60 μL of the reaction mixture were transferred to the charcoal plates, which were then assembled on top of the DYNEX plates using Centrifuge Alignment Frames (catalog number MACF09604, Millipore). The unbound labeled ethanolamine was centrifuged through to the bottom plate (5 min at 2000 rpm), which was preloaded with the scintillant, as described above. The plates were sealed and left at rt for 1 h before counting on a Hewlett Packard TopCount. • Assay Method 2
# Rat FAAH = molecular target: T2, Rat FAAH (Rattus norvegicus, UniProt P97612); experiment: Assay Method 2: FAAH assay, 3H-anandamide hydrolysis in cell homogenate; format: biochemical; details: average of results obtained, > value = solubility limit or highest concentration tested
# T2 construct: expressed in transfected cells
# T2 sequence (P97612 1-579): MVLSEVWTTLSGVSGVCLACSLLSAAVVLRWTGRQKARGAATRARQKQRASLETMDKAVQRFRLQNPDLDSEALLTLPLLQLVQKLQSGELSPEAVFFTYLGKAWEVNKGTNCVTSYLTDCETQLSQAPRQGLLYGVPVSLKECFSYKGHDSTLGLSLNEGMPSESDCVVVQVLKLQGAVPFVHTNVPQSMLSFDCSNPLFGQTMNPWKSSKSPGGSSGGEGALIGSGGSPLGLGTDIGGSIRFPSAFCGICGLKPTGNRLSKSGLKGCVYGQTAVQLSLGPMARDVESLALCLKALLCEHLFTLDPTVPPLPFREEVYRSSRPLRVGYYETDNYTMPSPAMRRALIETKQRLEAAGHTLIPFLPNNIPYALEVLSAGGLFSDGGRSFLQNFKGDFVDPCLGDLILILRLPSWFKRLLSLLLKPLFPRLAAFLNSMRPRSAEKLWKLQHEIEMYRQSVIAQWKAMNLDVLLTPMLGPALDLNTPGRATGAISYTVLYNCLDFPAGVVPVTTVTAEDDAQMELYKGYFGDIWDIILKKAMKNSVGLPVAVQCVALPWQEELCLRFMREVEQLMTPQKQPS
# Description: A. Transfection of Cells with Rat FAAH
# The assay mixture consisted of 50 μL of the cell homogenate, 10 μL of the test compound, and 40 μL of anandamide [1-^3H-ethanolamine] (^3H-AEA, Perkin-Elmer, 10.3 Ci/mmol), which was added last, for a final tracer concentration of 80 nM. The reaction mixture was incubated at rt for 1 h. During the incubation, 96-well Multiscreen filter plates (catalog number MAFCNOB50; Millipore, Bedford, Mass., USA) were loaded with 25 μL of activated charcoal (Multiscreen column loader, catalog number MACL09625, Millipore) and washed once with 100 μL of MeOH. […] After the 1 h incubation, 60 μL of the reaction mixture were transferred to the charcoal plates, which were then assembled on top of the DYNEX plates using Centrifuge Alignment Frames (catalog number MACF09604, Millipore). The unbound labeled ethanolamine was centrifuged through to the bottom plate (5 min at 2000 rpm), which was preloaded with the scintillant, as described above. The plates were sealed and left at rt for 1 h before counting on a Hewlett Packard TopCount.
SMILES,IC50 (FAAH),IC50 (Rat FAAH)
"O=C(Nc1cccc2nccn12)N1CCN(Cc2ccc3c(c2)OC(F)(F)O3)CC1 [Example 71, 4-(2,2-Difluoro-benzo[1,3]dioxol-5-ylmethyl)-piperazine-1-carboxylic acid imidazo[1,2-a]pyridin-5-ylamide]",140 nM,140 nM
"O=C(Nc1ccc2nccn2c1)N1CCN(Cc2cccc(Oc3ccc(Cl)cc3)c2)CC1 [Example 50, 4-[3-(4-Chloro-phenoxy)-benzyl]-piperazine-1-carboxylic acid imidazo[1,2-a]pyridin-6-ylamide]",,1200 nM
"O=C(Nc1noc2ncccc12)N1CCN(Cc2cccc(Oc3cccc(OC(F)(F)F)c3)c2)CC1 [Example 36, 4-[3-(3-Trifluoromethoxy-phenoxy)-benzyl]-piperazine-1-carboxylic acid isoxazolo[5,4-b]pyridin-3-ylamide]",1400 nM,6000 nM
"O=C(Nc1noc2ncccc12)N1CCN(Cc2ccc(Br)c(F)c2)CC1 [Example 6, 4-(4-Bromo-3-fluoro-benzyl)-piperazine-1-carboxylic acid isoxazolo[5,4-b]pyridin-3-ylamide]",,> 10000 nM
"O=C(Nc1noc2ccncc12)N1CCN(Cc2cccc(Oc3ccc(Cl)cc3)c2)CC1 [Example 40, 4-[3-(4-Chloro-phenoxy)-benzyl]-piperazine-1-carboxylic acid isoxazolo[4,5-c]pyridin-3-ylamide]",,40 nM
"O=C(Nc1ccn2ccnc2n1)N1CCN(Cc2cccc(Oc3ccc(Cl)cc3)c2)CC1 [Example 75, 4-[3-(4-Chloro-phenoxy)-benzyl]-piperazine-1-carboxylic acid imidazo[1,2-a]pyrimidin-7-ylamide]",,830 nM
"O=C(Nc1cnc2cccnn12)N1CCN(Cc2cccc(Oc3ccc(Cl)cc3)c2)CC1 [Example 1, 4-[3-(4-Chloro-phenoxy)-benzyl]-piperazine-1-carboxylic acid imidazo[1,2-b]pyridazin-3-ylamide]",,16 nM
"O=C(Nc1cnc2ccccn12)N1CCN(Cc2ccc3c(c2)OC(F)(F)O3)CC1 [Example 58, 4-(2,2-Difluoro-benzo[1,3]dioxol-5-ylmethyl)-piperazine-1-carboxylic acid imidazo[1,2-a]pyridin-3-ylamide]",,2000 nM
"O=C(Nc1cnc2ccccn12)N1CCN(Cc2cccc(Oc3ccc(Cl)cc3)c2)CC1 [Example 57, 4-[3-(4-Chloro-phenoxy)-benzyl]-piperazine-1-carboxylic acid imidazo[1,2-a]pyridin-3-ylamide]",,98 nM
"Cc1nc2cc(NC(=O)N3CCN(Cc4cccc(Oc5ccc(Cl)cc5)c4)CC3)ccc2o1 [Example 63, 4-[3-(4-Chloro-phenoxy)-benzyl]-piperazine-1-carboxylic acid (2-methyl-benzooxazol-5-yl)-amide]",,120 nM
"O=C(Nc1cccc2cn[nH]c12)N1CCN(Cc2cccc(Oc3ccc(Cl)cc3)c2)CC1 [Example 48, 4-[3-(4-Chloro-phenoxy)-benzyl]-piperazine-1-carboxylic acid (1H-indazol-7-yl)-amide]",,3000 nM
"O=C(Nc1ccnc2nccn12)N1CCN(Cc2cccc(Oc3ccc(Cl)cc3)c2)CC1 [Example 76, 4-[3-(4-Chloro-phenoxy)-benzyl]-piperazine-1-carboxylic acid imidazo[1,2-a]pyrimidin-5-ylamide]",,31 nM

# Results, then the compound that gave them:
IC50 (FAAH),IC50 (Rat FAAH),SMILES
50 nM,28 nM,"Cn1cc2c(NC(=O)N3CCN(Cc4cccc(Oc5ccc(Cl)cc5)c4)CC3)cccc2n1 [Example 65, 4-[3-(4-Chloro-phenoxy)-benzyl]-piperazine-1-carboxylic acid (2-methyl-2H-indazol-4-yl)-amide]"
> 10000 nM,> 10000 nM,"O=C(Nc1nc2ccccc2o1)N1CCN(Cc2ccc3c(c2)OC(F)(F)O3)CC1 [Example 68, 4-(2,2-Difluoro-benzo[1,3]dioxol-5-ylmethyl)-piperazine-1-carboxylic acid benzooxazol-2-ylamide]"
> 60 nM,> 400 nM,"O=C(Nc1noc2ncccc12)N1CCN(Cc2cccc(Oc3ccc4c(c3)OC(F)(F)O4)c2)CC1 [Example 34, 4-[3-(2,2-Difluoro-benzo[1,3]dioxol-5-yloxy)-benzyl]-piperazine-1-carboxylic acid isoxazolo[5,4-b]pyridin-3-ylamide]"
880 nM,,"O=C(Nc1nc2ccccc2o1)N1CCN(Cc2cccc(Oc3ccc(Cl)cc3)c2)CC1 [Example 66, 4-[3-(4-Chloro-phenoxy)-benzyl]-piperazine-1-carboxylic acid benzooxazol-2-ylamide]"
470 nM,4000 nM,"O=C(Nc1noc2ncccc12)N1CCN(Cc2cccc(Oc3ccc(F)c(C(F)(F)F)c3)c2)CC1 [Example 14, 4-[3-(4-Fluoro-3-trifluoromethyl-phenoxy)-benzyl]-piperazine-1-carboxylic acid isoxazolo[5,4-b]pyridin-3-ylamide]"
,6 nM,"O=C(Nc1cccc2nccn12)N1CCN(Cc2cccc(Oc3ccc(Cl)cc3)c2)CC1 [Example 69, 4-[3-(4-Chloro-phenoxy)-benzyl]-piperazine-1-carboxylic acid imidazo[1,2-a]pyridin-5-ylamide]"
,22 nM,"O=C(Nc1nocc1Cl)N1CCN(Cc2cccc(Oc3ccc(Cl)cc3)c2)CC1 [Example 85, 4-[3-(4-Chloro-phenoxy)-benzyl]-piperazine-1-carboxylic acid (4-chloro-isoxazol-3-yl)-amide]"
,7 nM,"O=C(Nc1noc2ncccc12)N1CCN(Cc2cccc(Oc3ccc(Cl)cc3)c2)CC1 [Example 20, 4-[3-(4-Chloro-phenoxy)-benzyl]-piperazine-1-carboxylic acid isoxazolo[5,4-b]pyridin-3-ylamide]"
,660 nM,"O=C(Nc1ccn2ccnc2c1)N1CCN(Cc2cccc(Oc3ccc(Cl)cc3)c2)CC1 [Example 72, 4-[3-(4-Chloro-phenoxy)-benzyl]-piperazine-1-carboxylic acid imidazo[1,2-a]pyridin-7-ylamide]"
370 nM,,"O=C(Nc1noc2ncccc12)N1CCN(Cc2ccc3ccccc3c2)CC1 [Example 29, 4-Naphthalen-2-ylmethyl-piperazine-1-carboxylic acid isoxazolo[5,4-b]pyridin-3-ylamide]"
,500 nM,"O=C(Nc1cc2nccn2cn1)N1CCN(Cc2cccc(Oc3ccc(Cl)cc3)c2)CC1 [Example 74, 4-[3-(4-Chloro-phenoxy)-benzyl]-piperazine-1-carboxylic acid imidazo[1,2-c]pyrimidin-7-ylamide]"
,17 nM,"O=C(Nc1noc2cccnc12)N1CCN(Cc2cccc(Oc3ccc(Cl)cc3)c2)CC1 [Example 41, 4-[3-(4-Chloro-phenoxy)-benzyl]-piperazine-1-carboxylic acid isoxazolo[4,5-b]pyridin-3-ylamide]"
> 10000 nM,,"O=C(Nc1cccc2cn[nH]c12)N1CCN(Cc2ccc3c(c2)OC(F)(F)O3)CC1 [Example 49, 4-(2,2-Difluoro-benzo[1,3]dioxol-5-ylmethyl)-piperazine-1-carboxylic acid (1H-indazol-7-yl)-amide]"
,16 nM,"O=C(Nc1cnc2[nH]ccc2c1)N1CCN(Cc2cccc(Oc3ccc(Cl)cc3)c2)CC1 [Example 60, 4-[3-(4-Chloro-phenoxy)-benzyl]-piperazine-1-carboxylic acid (1H-pyrrolo[2,3-b]pyridin-5-yl)-amide]"
